Our source for the IC50 and GI50 values is patent publication US20230416249A1, “N-[2-({4-[3-(ANILINO)-4-OXO-4,5,6,7-TETRAHYDRO-1H-PYRROLO[3,2-C]PYRIDIN-2-YL]PYRIDIN-3-YL)OXY)ETHYL]PROP-2-ENAMIDE DERIVATIVES AND SIMILAR COMPOUNDS AS EGFR INHIBITORS FOR THE TREATMENT OF CANCER” (Bayer Aktiengesellschaft, priority 2020, published 2023).

“And” between values parts separate entries of the source, which are not always exact repeats. Equal entries are not always repeated.

Assay [1] concerns the target T1, mutEGFR (D770_N771insSVD) (Homo sapiens, UniProt P00533, DUP768-770).
T1 construct: GST-EGFR #3 (SVD between D770 and N771); made in house; host or cells: Sf9 insect cells (baculovirus)
The assay can be described thus: Exon20-Mutant-EGFR(D770_N771insSVD) kinase assay (TR-FRET). In kind it is biochemical. Conditions: GST-EGFR ins SVD, 2 mM ATP, 15 min pre-incubation. An excerpt: Inhibitory activity of compounds of the present invention against an Epidermal Growth Factor Receptor (EGFR) with an insertion of the amino acids sequence SVD between D770 and N771 was quantified employing the TR-FRET based kinase activity assay as described in the following paragraphs.
A recombinant fusion protein of N-terminal Glutathion-S-Transferase (GST) and a fragment of human EGFR variant (amino acids R669 to A1210 with insertion of the amino acids sequence SVD between D770 and N771 (“EGFR ins SVD”), expressed in Sf9 insect cells and purified via affinity chromatography using Glutathion Sepharose as described above, was used as a kinase. As substrate for the kinase reaction the biotinylated peptide biotin-Ahx-AEEEEYFELVAKKK (SEQ ID NO: 6) (C-terminus in amide form) was used which can be purchased e.g. form the company Biosynthan GmbH (Berlin-Buch, Germany).
For the assay 50 nl of a 100-fold concentrated solution of the test compound in DMSO was pipetted into either a black low volume 384 well microtiter plate or a black 1536 well microtiter plate (both Greiner Bio-One, Frickenhausen, Germany), 2 μl of a solution of EGFR in aqueous assay buffer [50 mM Hepes pH 7.0, 10 mM MgCl2, 1 mM dithiothreitol, 0.5 mM EGTA, 0.3 mM activated sodium ortho-vanadate, 0.005% (w/v) bovine serum albumin, 0.005% (v/v) Tween-20] were added and the mixture was incubated for 15 min at 22° C. to allow pre binding of the test compounds to the enzyme before the start of the kinase reaction. Then the kinase reaction was started by the addition of 3 μL of a solution of adenosine tri phosphate (ATP, 3.33 mM=>final conc. in the 5 μL assay volume is 2 mM) and substrate (1.67 μM=>final conc. in the 5 μL assay volume is 1 μM) in assay buffer and the resulting mixture was incubated for a reaction time of 30 min at 22° C. The concentration of EGFR was adjusted depending of the activity of the enzyme lot and was chosen appropriate to have the assay in the linear range, typical concentration was 15 pg/μl. The reaction was stopped by the addition of 3 μl of a solution of HTRF detection reagents (83.3 nM streptavidine-XL665 [Cisbio Bioassays, Codolet, France] and 1.67 nM PT66-Tb-Cryptate, a terbium-cryptate labelled anti-phospho-tyrosine antibody from Cisbio Bioassays [instead of the PT66 Tb cryptate PT66 Eu Chelate from Perkin Elmer can also be used]) in an aqueous EDTA-solution (133.3 mM EDTA, 0.2% (w/v) bovine serum albumin in 50 mM HEPES pH 7.5).
The resulting mixture was incubated 1 h at 22° C. to allow the binding of the biotinylated phosphorylated peptide to the streptavidine-XL665 and the PT66-Tb-Cryptate. Subsequently the amount of phosphorylated substrate was evaluated by measurement of the resonance energy transfer from the PT66-Tb-Cryptate to the streptavidine-XL665. Therefore, the fluorescence emissions at 620 nm and 665 nm after excitation at 337 nm were measured in a HTRF reader, e.g. a Pherastar (BMG Labtechnologies, Offenburg, Germany) or a Viewlux (Perkin-Elmer). The ratio of the emissions at 665 nm and at […] was taken as the measure for the amount of phosphorylated substrate. The data were normalised (enzyme reaction without inhibitor=0% inhibition, all other assay components but no enzyme=100% inhibition).

Assay [2] concerns the target Ba/F3-EGFR-E746_A750del T790M cells (Homo sapiens, UniProt P00533, DEL746-750/T790M, cells depend on it). The assay can be described thus: Ba/F3 cell survival assay (Cell Titer-Glo), EGFR-E746_A750del T790M. In kind it is cell-based. Particulars: 48 h, without IL-3, 10 ng/mL EGF; read-out: BA/F3 (E746_A750del T790M) IC50. The protocol: (§1) 293T cells from ATCC were transfected with pBABEpuro expression constructs for EGFR-L858R, EGFR-E746_A750del, EGFR-L858R T790M, or EGFR-E746_A750del T790M, and pCL-Eco packaging vector using Fugene-6 transfection reagent from Promega. Plates were incubated at 37° C. for 48 h. Retrovirus was harvested by filtering the media supernatant through a 0.45 μm filter.
(§2) Ba/F3 cells purchased from DSMZ were grown in RPMI+10% FBS+10 ng/mL IL-3 and infected with filtered retroviral supernatant at a 1:2 dilution. Polybrene was added to a concentration of 8 μg/mL, plates were spun for 90 min, and incubated for 16 h at 37° C. 2 μg/mL puromycin was added to the infected cells 24 h after infection and cells were continually grown in the presence of puromycin and 10 ng/mL IL-3. Following stably expressing Ba/F3 cell lines were generated: Ba/F3-EGFR-L858R, Ba/F3-EGFR-E746_A750del, Ba/F3-EGFR-L858R T790M, or Ba/F3-EGFR-E746_A750del T790M.
(§3) For cell survival assays, Ba/F3 cells were grown to a density of 1-2 million cells per mL, spun down and resuspended in media without IL-3, and replated at a concentration 200,000-500,000 cells per mL. The cells ectopically expressing EGFR-L858R, EGFR-E746_A750del, EGFR-L858R T790M, or EGFR-E746_A750del T790M were plated with 10 ng/mL Millipore Culture grade EGF. The cells ectopically expressing pBABEpuro empty vector were plated with 10 ng/mL IL-3.
(§4) 2 days later, cells were plated in 50 μL in a 384 well plate at a concentration of 4000 cells per well for cells assayed in the absence of IL-3 and 2000 cells per well for cells assayed in the presence of IL-3. 100 nL of compound was added to each well using a 100 nL pin head, and plates were incubated at 37° C. for 48 h.
(§5) Cell viability was measured by adding 20 μL of Cell Titer-Glo Luminescent Cell Viability Reagent diluted 1:3 in PBS. Plates were sealed with Perkin Elmer Top-Seal, inverted several times to mix, and immediately centrifuged at 1000 rpm for 2 min. Plates were incubated in low light conditions for 8-10 min and luminescence was measured.

Assay [3] has as its target Ba/F3-EGFR-L858R T790M cells (Homo sapiens, UniProt P00533, T790M/L858R, cells depend on it). The assay can be described thus: Ba/F3 cell survival assay (Cell Titer-Glo), EGFR-L858R T790M. The assay is classed as cell-based. Conditions: 48 h, without IL-3, 10 ng/mL EGF; read-out: BA/F3 (L858R T790M) IC50. The protocol:
as §1, §2, §3, §4, §5
A general note: In ATP-based viability assays light output follows the ATP content of the culture.

The next assay addresses Ba/F3-EGFR-WT cells (Homo sapiens, UniProt P00533). The assay is described as follows: Ba/F3 cell survival assay (Cell Titer-Glo), WT EGFR. In kind it is cell-based. Conditions: 48 h, without IL-3, 10 ng/mL EGF; read-out: BA/F3 (wild type) IC50. On the procedure: (§6) 293T cells from ATCC were transfected with pBABEpuro expression constructs for WT EGFR or EGFR-insSVD, or EGFR-insSVD T790M, and pCL-Eco packaging vector using Fugene-6 transfection reagent from Promega. Plates were incubated at 37° C. for 48 h. Retrovirus was harvested by filtering the media supernatant through a 0.45 μm filter.
(§7) Ba/F3 cells purchased from DSMZ were grown in RPMI+10% FBS+10 ng/mL IL-3 and infected with filtered retroviral supernatant at a 1:2 dilution. Polybrene was added to a concentration of 8 μg/mL, plates were spun for 90 min, and incubated for 16 h at 37° C. 2 μg/mL puromycin was added to the infected cells 24 h after infection and cells were continually grown in the presence of puromycin and 10 ng/mL IL-3. Following stably expressing Ba/F3 cell lines were generated: Ba/F3-EGFR-WT, Ba/F3-EGFR-insSVD, Ba/F3-EGFR-insSVD T790M, (Ba/F3—vector-control).
(§8) For cell survival assays, Ba/F3 cells were grown to a density of 1-2 million cells per mL, spun down and resuspended in media without IL-3, and replated at a concentration 200,000-500,000 cells per mL. The cells ectopically expressing WT EGFR, EGFR-insSVD, or EGFR-insSVD T790M were plated with 10 ng/mL Millipore Culture grade EGF. The cells ectopically expressing pBABEpuro empty vector were plated with 10 ng/mL IL-3.
as §4, §5

The target of a further assay is Ba/F3-EGFR-insSVD cells (Homo sapiens, UniProt P00533, DUP768-770, cells depend on it). The assay can be described thus: Ba/F3 cell survival assay (Cell Titer-Glo), EGFR-insSVD. Conditions: 48 h, without IL-3, 10 ng/mL EGF; read-out: BA/F3 (insSVD) IC50. The assay is classed as cell-based. The protocol: as §6, §7, §8, §4, §5
Ba/F3-EGFR-insSVD cells, sequence (P00533 with tags, fused parts or gaps DUP768-770): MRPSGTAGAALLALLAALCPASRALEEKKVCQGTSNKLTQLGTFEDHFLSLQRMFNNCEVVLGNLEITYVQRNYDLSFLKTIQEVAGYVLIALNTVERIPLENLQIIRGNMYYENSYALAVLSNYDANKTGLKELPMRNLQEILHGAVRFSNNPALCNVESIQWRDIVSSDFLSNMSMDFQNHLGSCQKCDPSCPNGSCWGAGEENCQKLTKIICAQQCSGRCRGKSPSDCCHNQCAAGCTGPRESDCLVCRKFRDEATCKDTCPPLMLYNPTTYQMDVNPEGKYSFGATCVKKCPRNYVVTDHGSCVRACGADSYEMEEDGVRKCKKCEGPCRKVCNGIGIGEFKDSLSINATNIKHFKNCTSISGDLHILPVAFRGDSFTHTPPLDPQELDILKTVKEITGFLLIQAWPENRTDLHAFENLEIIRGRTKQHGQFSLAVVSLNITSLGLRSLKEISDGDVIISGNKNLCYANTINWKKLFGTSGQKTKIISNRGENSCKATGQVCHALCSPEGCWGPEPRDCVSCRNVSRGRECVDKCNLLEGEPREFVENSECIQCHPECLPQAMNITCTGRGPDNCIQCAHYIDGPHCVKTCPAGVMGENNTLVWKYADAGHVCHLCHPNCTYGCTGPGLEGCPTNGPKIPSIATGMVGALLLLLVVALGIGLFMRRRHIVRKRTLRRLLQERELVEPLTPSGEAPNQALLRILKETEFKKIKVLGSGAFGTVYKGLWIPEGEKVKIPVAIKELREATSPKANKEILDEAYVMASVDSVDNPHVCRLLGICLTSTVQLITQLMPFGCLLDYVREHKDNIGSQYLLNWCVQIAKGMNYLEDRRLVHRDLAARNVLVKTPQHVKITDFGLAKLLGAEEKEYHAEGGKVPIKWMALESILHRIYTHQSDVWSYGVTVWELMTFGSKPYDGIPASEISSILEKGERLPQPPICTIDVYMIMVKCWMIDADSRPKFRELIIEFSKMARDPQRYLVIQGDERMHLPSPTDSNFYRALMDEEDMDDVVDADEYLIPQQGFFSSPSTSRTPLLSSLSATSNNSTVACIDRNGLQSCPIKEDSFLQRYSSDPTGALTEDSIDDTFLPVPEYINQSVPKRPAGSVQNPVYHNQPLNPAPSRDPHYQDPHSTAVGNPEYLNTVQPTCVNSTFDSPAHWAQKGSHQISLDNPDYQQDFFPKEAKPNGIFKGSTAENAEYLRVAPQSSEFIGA

Ba/F3-EGFR-E746_A750del T790M cells, sequence (P00533 with tags, fused parts or gaps DEL746-750/T790M): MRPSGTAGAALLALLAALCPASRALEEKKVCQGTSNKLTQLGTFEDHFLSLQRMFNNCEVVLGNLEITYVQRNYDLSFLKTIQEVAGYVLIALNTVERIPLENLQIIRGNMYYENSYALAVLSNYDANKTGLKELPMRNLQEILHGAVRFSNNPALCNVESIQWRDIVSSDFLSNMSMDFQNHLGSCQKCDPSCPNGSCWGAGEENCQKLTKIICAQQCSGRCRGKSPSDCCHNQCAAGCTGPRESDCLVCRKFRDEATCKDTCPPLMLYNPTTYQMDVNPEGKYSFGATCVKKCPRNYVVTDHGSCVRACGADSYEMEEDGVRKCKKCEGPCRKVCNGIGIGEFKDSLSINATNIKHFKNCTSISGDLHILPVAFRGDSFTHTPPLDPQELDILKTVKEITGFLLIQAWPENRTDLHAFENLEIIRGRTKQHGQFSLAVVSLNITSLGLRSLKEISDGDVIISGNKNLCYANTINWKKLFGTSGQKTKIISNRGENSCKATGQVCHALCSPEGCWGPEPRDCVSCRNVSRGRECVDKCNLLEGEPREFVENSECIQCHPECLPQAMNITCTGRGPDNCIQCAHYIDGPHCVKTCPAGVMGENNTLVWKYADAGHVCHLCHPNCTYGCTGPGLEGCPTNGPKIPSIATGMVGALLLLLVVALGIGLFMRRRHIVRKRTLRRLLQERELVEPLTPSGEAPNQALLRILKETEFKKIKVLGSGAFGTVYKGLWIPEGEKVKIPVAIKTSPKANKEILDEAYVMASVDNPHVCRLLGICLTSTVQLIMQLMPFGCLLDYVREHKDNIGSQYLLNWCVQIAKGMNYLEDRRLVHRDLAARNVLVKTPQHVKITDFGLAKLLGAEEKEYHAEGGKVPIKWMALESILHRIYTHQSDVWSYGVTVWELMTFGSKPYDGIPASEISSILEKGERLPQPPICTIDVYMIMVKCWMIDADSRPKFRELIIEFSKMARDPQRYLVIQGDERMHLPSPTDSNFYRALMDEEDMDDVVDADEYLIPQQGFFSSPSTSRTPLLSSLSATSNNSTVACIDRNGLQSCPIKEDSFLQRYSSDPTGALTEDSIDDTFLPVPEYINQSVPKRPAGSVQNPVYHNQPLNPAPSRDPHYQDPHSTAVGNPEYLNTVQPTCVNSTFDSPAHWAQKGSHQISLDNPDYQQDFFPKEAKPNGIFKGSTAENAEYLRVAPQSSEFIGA
Ba/F3-EGFR-L858R T790M cells, sequence (P00533 whole entry T790M/L858R): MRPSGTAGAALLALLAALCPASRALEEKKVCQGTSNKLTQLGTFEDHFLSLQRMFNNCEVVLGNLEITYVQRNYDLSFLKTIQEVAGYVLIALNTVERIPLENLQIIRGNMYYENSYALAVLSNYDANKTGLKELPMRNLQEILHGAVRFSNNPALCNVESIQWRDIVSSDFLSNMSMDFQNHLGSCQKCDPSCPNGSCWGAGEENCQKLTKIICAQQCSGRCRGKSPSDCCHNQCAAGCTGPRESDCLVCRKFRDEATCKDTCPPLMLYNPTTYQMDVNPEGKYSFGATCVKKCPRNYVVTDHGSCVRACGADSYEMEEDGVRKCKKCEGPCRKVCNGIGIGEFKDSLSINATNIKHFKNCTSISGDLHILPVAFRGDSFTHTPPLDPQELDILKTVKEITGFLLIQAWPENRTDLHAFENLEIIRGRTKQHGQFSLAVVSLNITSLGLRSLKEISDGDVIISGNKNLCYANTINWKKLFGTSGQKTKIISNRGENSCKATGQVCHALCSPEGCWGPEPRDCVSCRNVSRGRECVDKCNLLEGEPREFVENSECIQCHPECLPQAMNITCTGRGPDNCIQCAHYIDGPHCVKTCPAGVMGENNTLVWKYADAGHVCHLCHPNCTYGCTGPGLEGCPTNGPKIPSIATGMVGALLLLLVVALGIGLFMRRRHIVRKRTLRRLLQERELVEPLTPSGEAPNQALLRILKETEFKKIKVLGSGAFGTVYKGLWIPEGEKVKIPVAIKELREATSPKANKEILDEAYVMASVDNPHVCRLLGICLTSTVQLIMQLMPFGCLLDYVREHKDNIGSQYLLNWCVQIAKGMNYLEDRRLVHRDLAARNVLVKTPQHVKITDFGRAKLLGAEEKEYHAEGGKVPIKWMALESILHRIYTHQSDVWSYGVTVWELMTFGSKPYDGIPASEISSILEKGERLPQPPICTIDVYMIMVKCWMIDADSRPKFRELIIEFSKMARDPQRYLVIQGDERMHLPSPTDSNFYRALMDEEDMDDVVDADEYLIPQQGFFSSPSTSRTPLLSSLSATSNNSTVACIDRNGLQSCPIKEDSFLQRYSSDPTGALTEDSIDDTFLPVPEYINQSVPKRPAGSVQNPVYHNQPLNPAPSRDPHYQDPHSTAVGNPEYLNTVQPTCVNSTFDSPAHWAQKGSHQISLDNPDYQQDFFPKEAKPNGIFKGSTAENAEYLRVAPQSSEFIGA
T1 sequence (P00533 with tags, fused parts or gaps DUP768-770): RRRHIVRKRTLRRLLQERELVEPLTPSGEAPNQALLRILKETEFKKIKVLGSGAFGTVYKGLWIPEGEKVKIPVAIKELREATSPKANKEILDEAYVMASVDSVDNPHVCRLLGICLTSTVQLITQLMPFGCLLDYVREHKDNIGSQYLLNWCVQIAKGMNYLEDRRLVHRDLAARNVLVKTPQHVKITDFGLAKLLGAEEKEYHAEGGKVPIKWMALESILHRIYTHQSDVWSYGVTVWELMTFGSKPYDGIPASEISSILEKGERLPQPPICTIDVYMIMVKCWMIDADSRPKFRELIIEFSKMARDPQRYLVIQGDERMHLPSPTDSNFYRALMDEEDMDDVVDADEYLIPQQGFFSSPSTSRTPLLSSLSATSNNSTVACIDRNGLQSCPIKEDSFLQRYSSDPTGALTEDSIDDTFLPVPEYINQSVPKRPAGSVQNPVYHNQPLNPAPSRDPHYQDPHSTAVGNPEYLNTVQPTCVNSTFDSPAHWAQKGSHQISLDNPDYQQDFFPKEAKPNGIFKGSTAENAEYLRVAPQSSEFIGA

For the compound `COc1c(F)cccc1Nc1c(-c2ccncc2OCCN(C)C(=O)/C=C/CN(C)C)[nH]c2c1C(=O)NCC2` [Example 8, (2E)-4-(dimethylamino)-N-[2-({4-[3-(3-fluoro-2-methoxyanilino)-4-oxo-4,5,6,7-tetrahydro-1H-pyrrolo[3,2-c]pyridin-2-yl]pyridin-3-yl}oxy)ethyl]-N-methylbut-2-enamide], the concentration for half-maximal inhibition (IC50) in assay [1] was 0.000554 µM. The GI50 in assay [2] is 0.37 µM; in assay [3], > 1 µM; on Ba/F3-EGFR-WT cells, 4.7 µM; at Ba/F3-EGFR-insSVD cells it was 0.24 µM.

In assay [1], `COc1c(Cl)cccc1Nc1c(-c2ccncc2OCCN(C)C(=O)/C=C/CN(C)C)[nH]c2c1C(=O)NCC2` [Example 9, (2E)-N-[2-({4-[3-(3-chloro-2-methoxyanilino)-4-oxo-4,5,6,7-tetrahydro-1H-pyrrolo[3,2-c]pyridin-2-yl]pyridin-3-yl}oxy)ethyl]-4-(dimethylamino)-N-methylbut-2-enamide] had an IC50 of 0.00248 µM. For the same compound, the GI50 was 0.183 µM in assay [2]; 0.731 µM and > 1 µM in assay [3]; 4.52 µM on Ba/F3-EGFR-WT cells; 0.263 µM on Ba/F3-EGFR-insSVD cells.

`COc1c(Cl)cccc1Nc1c(-c2ccncc2OCCN(C)C(=O)/C=C/CN(C)C)[nH]c2c1C(=O)NC1(CCC1)C2` [Example 10, (2E)-N-[2-({4-[3′-(3-chloro-2-methoxyanilino)-4′-oxo-1′,4′,5′,7′-tetrahydrospiro[cyclobutane-1,6′-pyrrolo[3,2-c]pyridin]-2′-yl]pyridin-3-yl}oxy)ethyl]-4-(dimethylamino)-N-methylbut-2-enamide] yielded a 50% inhibitory concentration (IC50) in assay [1] of 0.00355 µM. Moreover, the GI50 in assay [2] was 0.651 µM; in assay [3] it was > 1 µM; on Ba/F3-EGFR-WT cells, 1.66 µM; on Ba/F3-EGFR-insSVD cells, 0.205 µM.

For the compound `C=CC(=O)N(C)CCOc1cnccc1-c1[nH]c2c(c1Nc1cccc(Cl)c1OC)C(=O)NC1(CCC1)C2` [Example 11, N-[2-({4-[3′-(3-chloro-2-methoxyanilino)-4′-oxo-1′,4′,5′,7′-tetrahydrospiro[cyclobutane-1,6′-pyrrolo[3,2-c]pyridin]-2′-yl]pyridin-3-yl}oxy)ethyl]-N-methylprop-2-enamide], in assay [1], the IC50 is 0.000464 µM. The GI50 in assay [2] came to 0.0258 µM; in assay [3], 0.198 µM; on Ba/F3-EGFR-WT cells, 0.309 µM; on Ba/F3-EGFR-insSVD cells, 0.0122 µM.

For the compound `C=CC(=O)N(C)CCOc1cnccc1-c1[nH]c2c(c1Nc1cccc(Cl)c1OC)C(=O)NC(C)(C)C2` [Example 12, N-[2-({4-[3-(3-chloro-2-methoxyanilino)-6,6-dimethyl-4-oxo-4,5,6,7-tetrahydro-1H-pyrrolo[3,2-c]pyridin-2-yl]pyridin-3-yl}oxy)ethyl]-N-methylprop-2-enamide], half-maximal inhibition in assay [1] (IC50) was put at 0.000583 µM. The GI50 in assay [2] turned out to be 0.0474 µM; in assay [3], 0.276 µM; on Ba/F3-EGFR-WT cells, 0.33 µM; at Ba/F3-EGFR-insSVD cells, 0.0177 µM.

Consider `C=CC(=O)N(C)CCOc1cnccc1-c1[nH]c2c(c1Nc1ccccc1OC(F)F)C(=O)NCC2` [Example 14, N-(2-{[4-(3-{[2-(difluoromethoxy)phenyl]amino}-4-oxo-4,5,6,7-tetrahydro-1H-pyrrolo[3,2-c]pyridin-2-yl)pyridin-3-yl]oxy}ethyl)-N-methylprop-2-enamide], for which the midpoint of inhibition in assay [1], the IC50, lay at 0.000571 µM. In addition, the GI50 was 0.0291 µM in assay [2], 0.397 µM in assay [3], 0.652 µM at Ba/F3-EGFR-WT cells and 0.0354 µM at Ba/F3-EGFR-insSVD cells.

For orientation: IC50 means the concentration at which inhibition is half-maximal. Read a low IC50 as greater potency.
